Data reported in patent US11672786B2, “Methods of treating diseases associated with repeat instability” (The Hospital for Sick Children, priority 2016, dated 2023).
Where “and” joins values, the source holds several entries; their conditions need not be identical. Identical values can stand only once.

Experiments:
[1] = test system: HT1080-(CAG)850 contact inhibition; test: small-pool PCR repeat instability, non-proliferating HT1080-(CAG)850 cells under contact inhibition; format: cell-based, human; conditions: 50 uM NA, 30 days
Description: (§1) The construction of the HT1080-(CAG)850 cell model was described previously (Sathasivam et al., 1997, Hum. Genet., 99:692-5). Briefly, HT1080 (ATCC) human fibrosarcoma cells were co-transfected with a plasmid (LC15-R) containing 800-850 (CTG)●(CAG) repeats (Nakatani et al., 2005, Nat. Chem. Biol., 1:39-43) and a plasmid encoding PhiC31 integrase. Transfection was performed with a Nucleofector (Lonza, Basel, Switzerland), and stably transfected clones were selected with puromycin. […] The HT1080-non-transcribing (CAG)850 cell model was established by transfecting a plasmid modified from pLC16 by inserting an additional SV40 polyadenylation signal downstream of the repeats (in addition to the original polyadenylation signals located upstream of the repeats), so that CAG/CTG repeats are floxed by transcription-terminator elements. The AttB-PhiC31 system has been widely used for single copy integration. […] The HT1080 model cells and an HD primary fibroblast cell line, GM09197 (Coriell Biorepository) with a large expanded allele of 180 CAG repeats and a non-expanded allele of 23 repeats (Sathasivam et al., 1997, Hum. Genet., 99:[…]), the HD primary fibroblast cell line, GM02191 (Coreill Biorepository) with an expanded allele of 43 CAG repeats and a non-expanded allele of 19 repeats, were cultured at 37° C. with 5% CO2 in Dulbecco's modified Eagle's medium supplemented with 10% fetal bovine serum and 1% penicillin/streptomycin. Cells were treated with or without continuous exposure to 50-μM NA for 30 days (HT1080 cells) or for 40 days (fibroblast cells). For experiments on non-proliferating cells, HT1080 cells were grown to confluence and then treated for the same period. WST-1 assay was performed according to the manufacturer's instructions (Roche, Basel, Switzerland). All cell lines were tested to be free of Mycoplasma. Three biological replicates were performed for each experiment.
Proliferation was inhibited by growth under contact inhibition and serum starvation, as previously performed. Degree of arrest from proliferation was assessed in living cells by counting BrdU positive cells after 24 hrs incubation with BrdU in proliferating or contact-inhibited (and serum starved) HT1080-(CAG)850 cells. The percentage of BrdU positive cells was 92.6% in proliferating cells and 8.17% in contact-inhibited cells. Although a small portion of HT1080-(CAG)850 cells were still proliferating even under contact-inhibition and serum starvation, the ratio is very small. Based on a calculation how many cells derive from a single cell after 30 days (the period that was studied) (proliferating, 1.926^30=348653546.6; contact inhibition, 1.0817^30=10.55), the effect of proliferation in contact-inhibited cells can be ignored.
Genomic DNA was extracted from HT1080-(CAG)850 clones and HD primary fibroblasts using the Gentra Puregene Cell Kit (Qiagen, Valencia, Calif.). The expanded (CTG)●(CAG) repeats were sized by small-pool PCR (sp-PCR) followed by Southern blot as described previously (Sathasivam et al., 1997, Hum. Genet., 99:692-5). For HT1080 models, small-pool PCR (spPCR) was performed with the input of 1.4-1.7 genome equivalents. The repeat size difference in the models is, at most, 3000 base-pairs, therefore, being strictly conservative, a bias toward amplifying the shorter allele can be possible, even under optimized PCR conditions described herein. For HD primary fibroblasts, sp-PCR & Southern blots were performed as described previously with slight modifications (Tome et al., 2013, PLoS Genet., 9:e1003280). Briefly, the PCR primers listed in Table 1 were used, and blots were hybridized with a DIG-labeled (CAG)7 locked nucleic acid probe (Nakamori et al. 2009, Neuromuscul. Disord., 19:759-62).

[2] = test system: HT1080-non transcribing (CAG)850 cells; test: small-pool PCR repeat instability, HT1080-non transcribing (CAG)850 cells; format: cell-based, human; conditions: 50 uM NA, 30 days, repeat not transcribed
Description: as §1
Genomic DNA was extracted from HT1080-(CAG)850 clones and HD primary fibroblasts using the Gentra Puregene Cell Kit (Qiagen, Valencia, Calif.). The expanded (CTG)●(CAG) repeats were sized by small-pool PCR (sp-PCR) followed by Southern blot as described previously (Sathasivam et al., 1997, Hum. Genet., 99:692-5). For HT1080 models, small-pool PCR (spPCR) was performed with the input of 1.4-1.7 genome equivalents. The repeat size difference in the models is, at most, 3000 base-pairs, therefore, being strictly conservative, a bias toward amplifying the shorter allele can be possible, even under optimized PCR conditions described herein. For HD primary fibroblasts, sp-PCR & Southern blots were performed as described previously with slight modifications (Tome et al., 2013, PLoS Genet., 9:e1003280). Briefly, the PCR primers listed in Table 1 were used, and blots were hybridized with a DIG-labeled (CAG)7 locked nucleic acid probe (Nakamori et al. 2009, Neuromuscul. Disord., 19:759-62). At least 50 alleles were analyzed for each of the three experiments (more than 150 alleles for a total study). Repeat analyses are summarized in Table 2, compiled from complete small-pool-PCR datasets for each repetition of each experiment. For the histograms in FIGS. 4D, 4E, 10, 11, 5B, 5D, 5E, 14 and 15B, the Y-axis, “% of repeat population” was calculated by determining the proportion of >50 individual small-pool PCR reactions across the CAG repeat tract, that harbored a certain size of repeat product with a certain length. Cell clones were grown 30 or 40 days with or without NA (see, for example, Sathasivam et al., 1997, Hum. Genet., 99:692-5). Specifically, the histograms of repeat length distributions were from at least two different cell clones. Length distributions were determined as follows: Small-pool PCR followed by Southern blot for analysis of CAG/CTG repeat length.

[3] = single experiments Ex 1-3, cut-off ±25 repeats

naphthyridine-azaquinolone
% Contraction ([1]; Total): 53.3%
% Expansion ([1]; Total): 16.6%
% Unchanged ([1]; Total): 30.2%
Average Change of Repeat Size ([1]; Total): −90.9 number of repeats
% Unchanged ([1]; single experiments Ex 1-3): 34.9% and 25.0% and 30.0%
% Contraction [1, 3]: 49.2% and 57.1% and 54.0%
% Expansion [1, 3]: 15.9% and 17.9% and 16.0%
% Contraction ([2]; Total): 21.8%
% Expansion ([2]; Total): 12.1%
% Unchanged ([2]; Total): 66.1%
Average Change of Repeat Size ([2]; Total): −55.9 number of repeats
% Unchanged ([2]; single experiments Ex 1-3): 66.7% and 62.5% and 69.1%
% Contraction [2, 3]: 22.2% and 21.4% and 21.8%
% Expansion [2, 3]: 11.1% and 16.1% and 9.1%
